Measurements published in patent US8754071B2 (priority 2011, dated 2014).

These molecules were tested against T1, c-kit (Homo sapiens, UniProt P10721) (assay: Mo7e cell proliferation assay (SCF dependent proliferation)). Conditions: Table 1; human Mo7e cells stimulated with SCF, 48 hours, CellTiter Glo; 1% FBS; read-out: c-kit (Mo7e).
T1 construct: human Mo7e cells which endogenously express c-kit; endogenous in cells; host or cells: human Mo7e cells (promegakaryocytic leukemia line), stimulated with human recombinant SCF
Assay type: cell-based
Outline: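 Human Mo7e cells with endogenous c-kit, proliferation driven by SCF, 384-well format. After 48 h at 37 °C viability read by CellTiter-Glo luminescence. IC50 taken as concentration giving response halfway between baseline and maximum.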

T1 sequence (P10721 26-976): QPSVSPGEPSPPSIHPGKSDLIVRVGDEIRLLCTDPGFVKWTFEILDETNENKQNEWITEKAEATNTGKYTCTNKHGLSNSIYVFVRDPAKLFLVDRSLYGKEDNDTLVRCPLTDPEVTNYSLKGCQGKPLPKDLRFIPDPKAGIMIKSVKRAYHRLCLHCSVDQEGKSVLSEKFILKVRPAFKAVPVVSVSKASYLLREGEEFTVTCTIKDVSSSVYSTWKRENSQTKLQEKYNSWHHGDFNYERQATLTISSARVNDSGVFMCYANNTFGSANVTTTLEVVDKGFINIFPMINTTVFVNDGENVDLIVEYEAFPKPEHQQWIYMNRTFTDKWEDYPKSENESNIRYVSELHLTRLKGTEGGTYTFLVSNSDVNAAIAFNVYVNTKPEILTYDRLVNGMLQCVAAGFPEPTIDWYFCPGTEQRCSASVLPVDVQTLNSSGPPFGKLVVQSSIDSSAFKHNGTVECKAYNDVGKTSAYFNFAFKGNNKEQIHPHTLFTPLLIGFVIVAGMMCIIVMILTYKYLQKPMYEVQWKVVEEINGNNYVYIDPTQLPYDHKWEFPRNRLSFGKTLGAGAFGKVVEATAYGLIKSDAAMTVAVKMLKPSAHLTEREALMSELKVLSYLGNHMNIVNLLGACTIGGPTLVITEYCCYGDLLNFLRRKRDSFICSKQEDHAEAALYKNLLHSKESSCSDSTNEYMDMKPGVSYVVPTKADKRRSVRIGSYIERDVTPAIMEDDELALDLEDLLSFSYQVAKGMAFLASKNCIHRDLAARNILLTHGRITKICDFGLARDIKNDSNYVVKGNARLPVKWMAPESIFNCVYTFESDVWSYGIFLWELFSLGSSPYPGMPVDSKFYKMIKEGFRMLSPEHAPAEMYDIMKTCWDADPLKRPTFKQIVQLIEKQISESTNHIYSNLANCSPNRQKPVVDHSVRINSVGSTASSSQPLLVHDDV

| SMILES | IC50 |
| --- | --- |
| COC(=O)N1CC(c2nc(-c3ccc(C)c(NC(=O)c4cnc5ccc(OC)cn45)c3)no2)C1 [F60] | 0.028 µM |
| Cc1ccc(-c2noc(CN3CCC(F)(F)C3)n2)cc1NC(=O)c1cnc2ccccn12 [F29] | 0.016 µM |
| Cc1ccc(-c2noc(CC3CCCOC3)n2)cc1NC(=O)c1cnc2ccccn12 (stereo not shown) [F49] | 0.04 µM |
| COC(=O)N1CC(c2nc(-c3ccc(C)c(NC(=O)c4cnc5ccc(CCC(C)=O)cn45)c3)no2)C1 [F65, methyl 3-(3-(4-methyl-3-(6-(3-oxobutyl)imidazo[1,2-a]pyridine-3-carboxamido)phenyl)-1,2,4-oxadiazol-5-yl)azetidine-1-carboxylate] | 0.033 µM |
| Cc1ccc(-c2noc(CN3CCC(F)(F)CC3)n2)cc1NC(=O)c1cnc2ccccn12 [F30] | 0.02 µM |
| COC(=O)N1CC(c2nc(-c3ccc(C)c(NC(=O)c4cnc5ccccn45)c3)no2)C1 [F15, methyl 3-(3-(3-(imidazo[1,2-a]pyridine-3-carboxamido)-4-methylphenyl)-1,2,4-oxadiazol-5-yl)azetidine-1-carboxylate] | 0.02 µM |
| COC(=O)N1CC(c2nc(-c3ccc(C)c(NC(=O)c4cnc5ccc(CCC#N)cn45)c3)no2)C1 [F64, methyl 3-(3-(3-(6-(2-cyanoethyl)imidazo[1,2-a]pyridine-3-carboxamido)-4-methylphenyl)-1,2,4-oxadiazol-5-yl)azetidine-1-carboxylate] | 0.064 µM |
| Cc1ccc2ncc(C(=O)Nc3cc(-c4noc(NC5CCOCC5)n4)ccc3C)n2c1 [F82] | 0.055 µM |
| COC(=O)N1CC(c2nc(-c3ccc(C)c(NC(=O)c4cnc5cc(-c6ccn(C)n6)ccn45)c3)no2)C1 [F56, methyl 3-(3-(4-methyl-3-(7-(1-methyl-1H-pyrazol-3-yl)imidazo[1,2-a]pyridine-3-carboxamido)phenyl)-1,2,4-oxadiazol-5-yl)azetidine-1-carboxylate] | 0.006 µM |
| Cc1ccc(Nc2noc(C3CCOCC3)n2)cc1NC(=O)c1cnc2ccccn12 [F69] | 0.039 µM |
| COC(=O)N1CC(c2nc(-c3ccc(C)c(NC(=O)c4cnc5ccc(CCN6CCOCC6)cn45)c3)no2)C1 [F66, methyl 3-(3-(4-methyl-3-(6-(2-morpholinoethyl)imidazo[1,2-a]pyridine-3-carboxamido)phenyl)-1,2,4-oxadiazol-5-yl)azetidine-1-carboxylate] | 0.05 µM |
| COC(=O)N1CC(c2nc(-c3ccc(C)c(NC(=O)c4cnc5cc(F)ccn45)c3)no2)C1 [F54] | 0.037 µM |
| Cc1ccc(-c2nc(N3C[C@@H]4C[C@H]3CO4)no2)cc1NC(=O)c1cnc2ccccn12 [F94] | 0.092 µM |
| O=C(Nc1cc(-c2noc(CN3CCC(F)(F)CC3)n2)ccc1F)c1cnc2ccccn12 [F46] | 0.073 µM |
| Cc1nc(C)c(-c2ccc3ncc(C(=O)Nc4cc(-c5noc(CN6CC(C#N)C6)n5)ccc4C)n3c2)s1 [F99] | 0.049 µM |
| COC(=O)N1CCC[C@H]1Cc1nc(-c2ccc(C)c(NC(=O)c3cnc4ccccn34)c2)no1 [F40] | 0.094 µM |

Same assay, conditions: Table 2; human Mo7e cells stimulated with SCF, 48 hours, CellTiter Glo; 1% FBS; read-out: c-kit (Mo7e)

| SMILES | IC50 |
| --- | --- |
| COC(=O)N1CC(c2nc(-c3ccc(F)c(NC(=O)c4cnc5ccccn45)c3)no2)C1 [F201] | 0.443 µM |
| COC1CN(C(=O)OCc2nc(-c3ccc(C)c(NC(=O)c4cnc5ccccn45)c3)no2)C1 [F138] | 0.27 µM |
| Cc1ccc2ncc(C(=O)Nc3cc(-c4noc([C@@H]5CCN5)n4)ccc3C)n2c1 [F280] | 1.31 µM |
| Cc1ccc(-c2noc(CN3CC(C#N)C3)n2)cc1NC(=O)c1cnc2ccc(-c3cnn(C)c3)cn12 [F256] | 0.106 µM |
| Cc1ccc(-c2noc([C@H]3CCCN(C(=O)OC(C)(C)C)C3)n2)cc1NC(=O)c1cnc2ccccn12 [F187] | 0.32 µM |
| CCCS(=O)(=O)N1CC(c2nc(-c3ccc(F)c(NC(=O)c4cnc5ccccn45)c3)no2)C1 [F156] | 0.124 µM |
| Cc1ccc(-c2noc(C[C@H]3CCN(C(=O)OC(C)(C)C)C3)n2)cc1NC(=O)c1cnc2ccccn12 [F185] | 0.452 µM |
| Cc1ccc(-c2noc(C3CN(C(=O)OCCCN4CCOCC4)C3)n2)cc1NC(=O)c1cnc2ccccn12 [F135] | 0.75 µM |
| Cc1ccc(-c2noc([C@@H]3CCCNC3)n2)cc1NC(=O)c1cnc2ccccn12 [F203] | 0.826 µM |
| Cc1ccc(-c2noc(C3CN(C(=O)OCC(F)(F)F)C3)n2)cc1NC(=O)c1cnc2ccccn12 [F264] | 0.438 µM |
| Cc1ccc(-c2noc(CN3CC(O)C3)n2)cc1NC(=O)c1cnc2ccccn12 [F131] | 0.738 µM |
| CC(=O)N1CCC[C@@H]1c1nc(-c2ccc(C)c(NC(=O)c3cnc4ccccn34)c2)no1 [F269] | 1.01 µM |
| Cc1ccc(-c2noc([C@@H]3CCC(=O)N3)n2)cc1NC(=O)c1cnc2ccccn12 [F191] | 0.465 µM |
| Cc1ccc(-c2noc([C@@H]3COCCN3)n2)cc1NC(=O)c1cnc2ccccn12 [F276] | 1.24 µM |
| COC(=O)N1CC(Cc2nc(-c3ccc(C)c(NC(=O)c4cnc5ccccn45)c3)no2)C1 [F177] | 0.398 µM |
| COCCOC(=O)N1CC(c2nc(-c3ccc(C)c(NC(=O)c4cnc5ccccn45)c3)no2)C1 [F127] | 0.517 µM |

| SMILES | IC50 |
| --- | --- |
| COCCS(=O)(=O)N1CC(c2nc(-c3ccc(F)c(NC(=O)c4cnc5ccccn45)c3)no2)C1 [F222] | 0.376 µM |
| Cc1ccc(-c2noc(CC3CCN(C(=O)OC(C)(C)C)CC3)n2)cc1NC(=O)c1cnc2ccccn12 [F210] | 0.71 µM |
| COC(=O)N1CC(c2nc(-c3ccc(C)c(NC(=O)c4cnc5ccc(C(F)(F)F)cn45)c3)no2)C1 [F233] | 0.218 µM |
| Cc1ccc(-c2noc([C@@H]3COCCN3S(C)(=O)=O)n2)cc1NC(=O)c1cnc2ccccn12 [F165] | 0.362 µM |
| Cc1ccc(-c2noc(C3(NC(=O)OC(C)(C)C)COC3)n2)cc1NC(=O)c1cnc2ccccn12 [F139] | 0.139 µM |
| COC(=O)N1CCOC[C@H]1c1nc(-c2ccc(C)c(NC(=O)c3cnc4ccccn34)c2)no1 [F164] | 0.269 µM |
| Cc1ccc(-c2noc(C(NC(=O)OC(C)(C)C)C3COC3)n2)cc1NC(=O)c1cnc2ccccn12 (stereo not shown) [F183] | 0.454 µM |
| Cc1ccc(-c2noc(CCN3CC(F)(F)C3)n2)cc1NC(=O)c1cnc2ccccn12 [F179] | 0.119 µM |
| Cc1ccc(-c2noc(C3CN(C(=O)OCCO)C3)n2)cc1NC(=O)c1cnc2ccccn12 [F150] | 0.718 µM |
| Cc1ccc2ncc(C(=O)Nc3cc(-c4noc(COC5CN(C(=O)OC(C)(C)C)C5)n4)ccc3C)n2c1 [F267] | 0.65 µM |
| Cc1ccc(-c2noc(CN3CC(CO)C3)n2)cc1NC(=O)c1cnc2ccccn12 [F181] | 0.337 µM |
| Cc1ccc(-c2noc(C3CCN(C(=O)OC(C)(C)C)C3)n2)cc1NC(=O)c1cnc2ccccn12 (stereo not shown) [F107] | 0.912 µM |
| Cc1ccc(-c2noc([C@@H]3COCCN3C(=O)OC(C)(C)C)n2)cc1NC(=O)c1cnc2ccccn12 [F116] | 0.792 µM |
| COC(=O)N1CC(C)(c2nc(-c3ccc(C)c(NC(=O)c4cnc5ccccn45)c3)no2)C1 [F240] | 0.249 µM |
| Cc1ccc(-c2noc([C@@H](C)N3CC(F)(F)C3)n2)cc1NC(=O)c1cnc2ccccn12 [F226] | 0.112 µM |

Same assay, conditions: Table 2; values marked *: 20% FBS instead of 1% FBS; read-out: c-kit (Mo7e)

| SMILES | IC50 |
| --- | --- |
| Cc1ccc(-c2noc(C3CCCCN3C(=O)OC(C)(C)C)n2)cc1NC(=O)c1cnc2ccccn12 (stereo not shown) [F288] | 1.78 µM |
| Cc1ccc(-c2noc([C@@H]3CCCO3)n2)cc1NC(=O)c1cnc2ccccn12 [F104] | 0.224 µM |
